How the values were obtained:
[1] = test system: CD4+ T cells purified from spleens of DO 11.10 mice; experiment: Proliferation of CD4+ T cells after MHC-II presentation of OVA-coated yeast by macrophages (FACS); type: cell-based; settings: macrophages treated with HSP70 100 μg/ml and OVA-coated yeast
Method: (§1) Proliferation of CD4+ T cells and INF-γ (interferon gamma) release. Unlabeled S. cerevisiae (80 μg) was incubated with excess chicken ovary albumin (OVA) at 37° C. for 1 hour and washed repeatedly to eliminate free OVA protein. S. cerevisiae-OVA complexes (OVA-coated yeast) were administered to macrophages treated with or without HSP70. Macrophages were then washed and irradiated at 12,000 rads and assessed for viability by trypan blue exclusion. Subsequently, they were co-cultured with CD4+ T lymphocytes that were purified from spleens of DO 11.10 mice and labeled with carboxyfluoroscein succinimidyl ester (CSFE). […] Following the 48-hour incubation, proliferation of CD4+ cells was determined with FACS and IFN-γ release in the supernatant was tested by enzyme-linked immunosorbent assay (ELISA; Pierce, Ill.).
(§2) Alexafluor labeled S. cerevisiae were coated with whole ovalbumin (OVA) protein 1 mg/ml by co-incubation at 37° C. for 20 minutes and washed until free OVA protein was removed (washes were tested by gel electrophoresis using SDS-PAGE and immunoblotting). […] Resultant proliferation of the CSFE-labeled CD4+ was measured by FACS as an indirect measure of the amount of OVA protein processed and its peptide epitope presented in context of MHC-II. […]

[2] = test system: CD4+ T cells purified from spleens of DO 11.10 mice (IFN-γ); experiment: IFN-γ release by CD4+ T cells (ELISA); type: cell-based; settings: compared to ova-coated yeast alone or HSP70 given alone
Method: as §1, §2

[3] = test system: full thickness surgical wounds on the dorsum of BALB/cJ mice; experiment: Closure of full thickness surgical wounds, percent wound closure; type: in vivo
Method: Surgery and Treatment. Mice were anesthetized using Ketamine (2.0 mg/mouse) and Xylazine (0.1 mg/mouse) were administered intraperitoneally (IP) and the dorsal skin was shaved. After sterile prepping of the area, a full thickness circular wound, 8 mm diameter, was made on the dorsal skin using a disposable biopsy punch (Miltex Inc, York, Pa.) on the midline of the dorsum approximately at the iliac crest. The mice were then randomly assigned into the treatment groups. Initial wound measurements were performed while the mice were still anesthetized. Mice were then treated on days 0, 2, 4, and 6 unless otherwise specified. All agents used as treatment were diluted in 0.5 ml of PBS and injected using a 25-gauge needle in the subcutaneous space in the nape of the neck. The surgical procedures, post-operative monitoring, and safety concerns were approved by the Institutional Animal Care and Usage Committee.
Measurements and Analysis. Wound healing of open wounds is a complex process with many parameters to consider. […] The wound surface area was determined by measuring the craniocaudal and lateromedial distances using vernier calipers in perpendicular axis on days 0, 2, 4, 6, 9, and 11 postoperatively unless noted. Changes in wound area were expressed as percent wound closure. Wound closure data was plotted as average percent wound closure ±SEM unless otherwise noted. All calculations and data analysis were performed using Microsoft Excel and Sigma Plot. Sigma Plot was used to perform Student's t-tests for reported P values.
Full thickness surgical wounds were created on the dorsum of BALB/cJ mice as described in Methods. Wounds were made on day 0. Subsequently, the wounds were treated with exogenous injections of HSP70, HSP90, gp96 (30 μg/dose) or buffer administered subcutaneously (SC) on days 0, 2, 4 and 6 following surgery (FIG. 6A). The wounds were measured on days 0, 2, 4, 6, 9, 11 unless otherwise noted. Wounds were measured serially, percent wound closure was calculated and plotted against time in order to quantitate the rate of healing by secondary intention. […] Data is plotted as average percent wound closure ±SEM on days indicated. Two mice from each treatment group (PBS (n=12), HSP70 (n=11), HSP90 (n=12), and gp96 (n=11)) were sacrificed for histology on days 2, 4, and 6 post-surgery (data not shown). The P values obtain using the Student's t-test.
Results are of average percent wound closure ±SEM on day 2 post surgery. The *P values were obtained using the Student's t-test by comparing HSP treatment to all of the non-HSP control treatments. The least significant P value was reported. […] Doses higher than 50 μg/dose were not tested.

RAW 264.7 macrophages = experiment: In vitro macrophage phagocytosis of wound debris; type: cell-based, murine; settings: RAW264.7, labeled wound debris, 37° C.

## HSP70: heat shock protein purified from murine livers, prepared as a complex with endogenous peptide
[1]
  CD4+ proliferation: 20%
[2]
  IFN-γ production by CD4+ cells: increase in their ability to produce IFN-γ
[3]; 5 μg/dose and 50 μg/dose, day 2
  wound closure compared to controls: significant wound closure
[3]; 30 μg/dose SC on days 0, 2, 4 and 6
  wound healing at Day 11: completely healed
[3]; doses 5, 30, 50 μg/dose tested
  dose with the most significant difference in wound closure: 30 μg/dose
RAW 264.7 macrophages
  increase in phagocytosed wound debris compared to controls: 25%
macrophages
  cytotoxicity of HSP-treatment (trypan blue exclusion): not cytotoxic

Source: patent publication US20070098735A1, “Methods for the Elimination of Pathogens and Other Particulate Agents” (priority 2005, published 2007)
